One series has as its system young healthy women. In words: Clinical study in contraception, sequential regimen (Example 1): vaginal ultrasonography, endogenous hormones, bleeding pattern. The series is classed as in vivo, human. The note with it: 2 mg 17beta-estradiol days 1-14, then 10 mg dydrogesterone + 2 mg 17beta-estradiol days 15-28, single cycle. The source says:
Women who participated ill the study described in this example were all selected on the basis that they were users of ‘high’ dose monophasic ethinyl estradiol-containing combined oral contraceptives. The reasons for applying this selection criterion was that there is a dose relationship between follicular development and ethinyl estradiol whether given alone or in combination with a progestogen, i.e. less follicular development in the presence of the higher dose. Participation of the females involved in the study started at a moment of (almost) complete suppression of follicular development. This condition is not met if a person has their first day of bleeding in a natural cycle, after a tablet-free interval, or immediately after a low-dose combined oral contraceptive. A clinical study in contraception was conducted in 9 young healthy women who previously used a monophasic oral contraceptive pill with at least 30 microgram of ethinyl estradiol. The women were administered 2 mg 17beta-estradiol during days 1-14 of the cycle. From days. 15 to 28 of the cycle 10 mg dydrogesterone combined with 2 mg 17beta-estradiol was administered. The participants were followed by vaginal ultrasonography and blood sampling for endogenous hormones to assess ovarian function (ovulation-inhibition). Vaginal bleeding pattern and feeling of well being were scored by the participants.

The subject of another series is humans. To be noted: reported by Claassen et al., Acta Endocrinologica (1967); cited from earlier work.
The subject of series [1] is women. In words: Clinical study with dydrogesterone as progestogen-only preparation (Example 3). In kind it is in vivo, human. The note with it: 20 mg dydrogesterone once a day, uninterrupted for 4 months, 8 women. As for the experimental part: A clinical study with dydrogesterone as a progestogen-only preparation is conducted in 8 women who were selected on the basis of the criteria mentioned in Example 1. The 8 women receive a 20 mg dosage of dydrogesterone once a day, uninterruptedly during a period of 4 months.

The conditions of series [2]: hormone replacement therapy with 17beta-estradiol dydrogesterone (Grisar et al. 1999); cited from earlier work.
Series [3] deals with women. In words: Clinical study in contraception, combined ethinyl estradiol/dydrogesterone regimen (Example 2). The series is classed as in vivo, human. The note with it: 30 μg ethinyl estradiol + 20 mg dydrogesterone daily for 24 days, then 4 days placebo; 8 women. As for the experimental part:
A clinical study in contraception is conducted in 8 women, who were selected on the basis of the criteria mentioned in Example 1, using 30 μg ethinyl estradiol and 20 mg dydrogesterone. The aforementioned dose is administered on a daily basis during 24 days, followed by a hormone-free period placebo's) of 4 days.

For series [4] the following is noted: compared with commercially used synthetic progestogens; cited from earlier work.

For `CC(=O)[C@H]1CC[C@H]2[C@@H]3C=CC4=CC(=O)CC[C@@]4(C)[C@@H]3CC[C@]12C` [dydrogesterone, 9β,10α-pregna-4,6-diene-3,20-dione], the “Ovulation inhibition (subjects with inhibition)” value with young healthy women (9 women) is recorded as 7 of the 9. Further, the Intermenstrual bleeding entry with young healthy women (scored by participants) is “No intermenstrual bleeding was observed”. Also, the “Ovulation inhibition in humans” value in the series with humans is listed as “does not inhibit ovulation in humans”. In the series with women [1], the Irregular bleeding result was “some unpredictable irregular bleeding”, the Menstrual flow result was “reduction of the usual menstrual flow” and the Ovulation inhibition result is recorded as “Ovulation is inhibited”. Further, the “Adverse effects on blood pressure” value in series [2] is recorded as “no adverse effects on blood pressure”. Further, in the series with women [3], the Ovulation inhibition entry was “ovulation inhibition is achieved” and the Withdrawal bleeding entry is “Regular withdrawal bleeding occurs in all women”. Besides, in series [4], the “Estrogenic, glucocorticoid, anabolic or androgenic properties” value is reported as “does not exhibit estrogenic, glucocorticoid, anabolic or androgenic properties”.

Values taken from US20040202713A1, “Means and method for hormonal contraception” (priority 2001, published 2004).
